Experimental data as given in patent US20230295130A1, “COMPOUND USEFUL AS CDK7 KINASE INHIBITOR AND USE THEREOF” (TYK MEDICINES, INC., priority 2020, published 2023).

How the values were obtained:
[1] = target: CDK9/Cyclin Tl (Homo sapiens (Human), UniProt P50750); test: Enzyme activity test, mobility shift assay (Table 1); format: biochemical; conditions: 2 mM ATP; read-out: CDK9 kinase IC50
Method in brief: (§1)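 Human CDK9/Cyclin T1 and CDK2/Cyclin E1 activity measured by mobility shift assay. Compounds tested as 10-point, 3-fold dilution series starting at 0.5 mM (diluted from 10 mM DMSO stock), in duplicate, with 0 min or 60 min compound–enzyme pre-incubation.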

[2] = target: CDK2/Cyclin El (Homo sapiens (Human), UniProt P24941); test: as above; format: biochemical; conditions: 2 mM ATP; read-out: CDK2 kinase IC50
Method in brief: as §1

[3] = target: CDK12 (aa686-1082)/Cyclin K (Homo sapiens (Human), UniProt Q9NYV4); test: as above; format: biochemical; conditions: 2 mM ATP; read-out: CDK12 kinase IC50
Chain of CDK12 (aa686-1082)/Cyclin K (Q9NYV4 686-1082): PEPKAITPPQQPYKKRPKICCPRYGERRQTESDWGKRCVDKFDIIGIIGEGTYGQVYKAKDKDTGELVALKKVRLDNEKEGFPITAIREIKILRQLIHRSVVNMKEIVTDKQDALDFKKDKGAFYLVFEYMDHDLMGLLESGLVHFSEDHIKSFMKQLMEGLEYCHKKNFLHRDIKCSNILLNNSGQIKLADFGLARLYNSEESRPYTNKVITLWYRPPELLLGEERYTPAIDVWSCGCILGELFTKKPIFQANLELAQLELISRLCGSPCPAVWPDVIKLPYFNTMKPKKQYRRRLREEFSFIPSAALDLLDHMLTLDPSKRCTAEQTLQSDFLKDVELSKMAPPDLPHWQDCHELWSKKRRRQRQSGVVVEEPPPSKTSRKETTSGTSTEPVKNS
Chain of CDK12 (aa686-1082)/Cyclin K (O75909 whole entry partner, the tested form may be a part): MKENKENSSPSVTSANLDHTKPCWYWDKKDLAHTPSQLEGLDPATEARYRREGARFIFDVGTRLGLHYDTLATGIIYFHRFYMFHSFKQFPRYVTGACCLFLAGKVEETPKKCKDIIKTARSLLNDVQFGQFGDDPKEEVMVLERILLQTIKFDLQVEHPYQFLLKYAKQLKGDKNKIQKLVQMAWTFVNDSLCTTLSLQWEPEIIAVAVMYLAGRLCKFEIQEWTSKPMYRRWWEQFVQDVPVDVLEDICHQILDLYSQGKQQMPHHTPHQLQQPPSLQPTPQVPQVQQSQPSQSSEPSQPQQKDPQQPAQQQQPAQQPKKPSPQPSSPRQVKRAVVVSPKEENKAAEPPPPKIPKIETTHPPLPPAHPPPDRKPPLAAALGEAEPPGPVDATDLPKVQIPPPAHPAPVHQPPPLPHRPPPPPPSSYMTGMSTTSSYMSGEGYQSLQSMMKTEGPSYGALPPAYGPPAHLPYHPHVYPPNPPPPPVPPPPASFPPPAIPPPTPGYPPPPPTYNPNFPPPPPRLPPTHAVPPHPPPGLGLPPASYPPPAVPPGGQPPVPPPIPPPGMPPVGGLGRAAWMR
Method in brief: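 Mobility shift kinase assay on CDK9/Cyclin T1 and CDK12 (aa686-1082)/Cyclin K. Ten-point 3-fold dilution series started from a 0.5 mM intermediate solution in DMSO, with compound–enzyme pre-incubation of 0 or 60 min, in duplicate. Staurosporine served as positive control.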

[4] = target: T1, CDK7/Cyclin H/MAT1 kinase (Homo sapiens (Human), UniProt P50613); test: as above; format: biochemical; conditions: 2 mM ATP; pre-incubated 0 and 60 minutes
T1 sequence (P50613 whole entry): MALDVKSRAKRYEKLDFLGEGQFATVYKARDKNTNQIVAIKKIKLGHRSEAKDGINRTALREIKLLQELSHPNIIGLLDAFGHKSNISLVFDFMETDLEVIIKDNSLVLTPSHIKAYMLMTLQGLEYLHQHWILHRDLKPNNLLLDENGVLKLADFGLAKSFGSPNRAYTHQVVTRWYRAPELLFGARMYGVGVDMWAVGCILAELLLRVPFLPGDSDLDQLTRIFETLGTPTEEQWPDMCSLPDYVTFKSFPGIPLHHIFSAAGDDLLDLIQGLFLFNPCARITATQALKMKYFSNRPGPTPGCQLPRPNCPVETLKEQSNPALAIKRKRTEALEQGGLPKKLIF
T1 sequence (P51946 whole entry partner): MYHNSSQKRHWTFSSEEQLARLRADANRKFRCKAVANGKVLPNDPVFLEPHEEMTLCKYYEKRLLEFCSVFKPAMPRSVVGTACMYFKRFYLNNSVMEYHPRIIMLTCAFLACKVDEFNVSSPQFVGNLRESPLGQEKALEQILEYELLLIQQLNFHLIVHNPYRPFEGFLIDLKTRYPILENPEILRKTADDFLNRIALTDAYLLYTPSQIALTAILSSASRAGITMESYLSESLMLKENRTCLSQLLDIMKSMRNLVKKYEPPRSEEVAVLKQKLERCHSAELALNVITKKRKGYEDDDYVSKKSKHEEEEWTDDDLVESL
T1 sequence (P51948 whole entry partner): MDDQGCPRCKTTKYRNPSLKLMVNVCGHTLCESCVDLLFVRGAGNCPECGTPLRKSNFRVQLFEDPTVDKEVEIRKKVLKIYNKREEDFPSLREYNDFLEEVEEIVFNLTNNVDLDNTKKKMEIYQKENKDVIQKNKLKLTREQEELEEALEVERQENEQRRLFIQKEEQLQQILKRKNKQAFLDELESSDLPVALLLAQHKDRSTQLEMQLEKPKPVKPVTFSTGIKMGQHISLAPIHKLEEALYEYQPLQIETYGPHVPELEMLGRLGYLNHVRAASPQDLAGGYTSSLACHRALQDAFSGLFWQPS

[5] = system: colorectal cancer cells WiDr; test: Cell anti-proliferation experiment, MTT (Table 2); format: cell-based, human; conditions: incubate 3 days
From the text: (§2) Human breast cancer cells MDA-MB 231, MDA-MB453, ovarian cancer cells OVCAR3 and A2780, colorectal cancer cells HCT-116 and WiDr, and lung cancer cell Calu-6 were purchased from BNCC. DMEM medium (Bio-Channel), DMSO (dimethyl sulfoxide), MTT (thiazole blue), 0.25% EDTA-Tripsin (pancreatin digestive juice), 1×PBS (phosphate buffer, PH7.2), 96-well plate (Corning), fetal bovine serum (FBS), 10,000 U/mL penicillin-G/streptomycin, high-speed freezing centrifuge (EPPENDORF 5810R), enzyme-linked immunosorbent assay (Tecan Spark).
(§3) 1. Cell Plating • A) Tumor cells were cultured to 80-90% density in DMEM (high sugar, containing 10% FBS and 100 U/mL penicillin-G/streptomycin) at 37° C., 5% CO2 and saturated humidity. • B) The culture medium was removed from the 10 cm culture dish. • C) Cells were washed with 10 ml 1×PBS. • D) 4 ml of 0.25% EDTA-Tripsin was added to an incubator to digest pancreatin for 5 minutes at 37° C. and 5% CO2, transferred to a 15 ml centrifuge tube, centrifuged for 5 minutes at 200 g, and supernatant was discarded to obtain cell precipitation. • E) The cell precipitation was resuspended with 4 ml DMEM medium, counted and adjusted to 50,000 cells/ml. • F) Cell suspension was added to a 96-well plate with a volume of 100 μL per well and cultured overnight in a 5% CO2 incubator at 37° C.
(§4) Compound Dilution • A) Preparing the tested compound gradient dilution solution: the tested compounds were prepared into 10 mM and 1 mM storage solution respectively. Firstly, 1 μl and 0.5 μl of 10 mM storage solution were dissolved in 1 ml of DMSO-free culture solution, respectively, to obtain diluted compounds with concentrations of 10 and 5 μM. Then, 1.5 μl of 1 mM storage solution was dissolved in 1.5 ml of DMSO-free culture solution to obtain a dilution compound with a concentration of 1 μM, and then diluted with a 3-fold continuous gradient with […] culture solution for a total of 7 concentrations. The concentrations of all 10 diluted compounds mentioned above were as follows: • 10 μM, 5 μM, 1 μM, 333.33 nM, 111.11 nM, 37.03 nM, 12.35 nM, 4.15 nM, 1.37 nM, 0.46 nM • B) After full mixing, 100 μL of culture compound solution was taken to replace the culture solution in the cell culture plate, with 4 duplicated wells at each concentration; • C) The cells were transferred to incubator to incubate for 3 days.
(§5) 3. MTT Detection • A) The cell culture plate was taken out and added with 5 mg/ml MTT 10 μL in the biosafety cabinet; • B) The cell culture plate was put back into the incubator and continued to incubate for 3 hours; • C) The cell culture plate was taken out to remove the culture solution, 100 μL isopropanol (containing 0.4 mM HCl, 0.1% NP-40) was added, shaking at room temperature for 30 minutes; • D) The absorbance value was measured at 570 nm on TECAN enzyme linked immunosorbent assay.

[6] = system: ovarian cancer cells A2780; test: Cell anti-proliferation experiment, MTT (Table 2); format: cell-based, human; conditions: incubate 3 days
From the text: as §2, §3, §4, §5

[7] = system: ovarian cancer cells OVCAR3; test: Cell anti-proliferation experiment, MTT (Table 2); format: cell-based; conditions: Homo sapiens, OVCAR-3, 72 h, incubate 3 days
From the text: as §2, §3, §4, §5

[8] = system: lung cancer cell Calu-6; test: Cell anti-proliferation experiment, MTT (Table 2); format: cell-based; conditions: Homo sapiens, Calu-6, 72 h, incubate 3 days
From the text: as §2, §3, §4, §5

[9] = system: breast cancer cells MDA-MB453; test: Cell anti-proliferation experiment, MTT (Table 2); format: cell-based; conditions: Homo sapiens, MDA-MB-453, 72 h, incubate 3 days
From the text: as §2, §3, §4, §5

[10] = system: breast cancer cells MDA-MB 231; test: Cell anti-proliferation experiment, MTT (Table 2); format: cell-based; conditions: Homo sapiens, MDA-MB-231, 72 h, incubate 3 days
From the text: as §2, §3, §4, §5

[11] = system: colorectal cancer cells HCT-116; test: Cell anti-proliferation experiment, MTT (Table 2); format: cell-based; conditions: Homo sapiens, HCT-116, 72 h, incubate 3 days
From the text: as §2, §3, §4, §5

[12] = target: T1, CDK7/Cyclin H/MAT1 kinase; test: Enzyme activity test, mobility shift assay (Table 3); format: biochemical; conditions: 2 mM ATP, pre-incubated 0 and 60 minutes
Experimental: IC50 values of the compounds for CDK7 kinase were detected in Wuxi Biortus Biosciences Co. Ltd.
The compound powder was dissolved in 100% DMSO to prepare a 10 mM storage solution. The storage solution was further diluted to 0.5 mM as the initial concentration, and continuously diluted 3 times to obtain 10 compound solutions with different concentrations. The compound and enzyme were pre-incubated for 0 minutes and 60 minutes, respectively, using duplicate detection.
was used as a positive control, using Mobility shift say method, to detect CDK kinase (such as CDK7, CDK9, CDK12 and CDK2) activity of the compound.

Chain of CDK9/Cyclin Tl (P50750 whole entry): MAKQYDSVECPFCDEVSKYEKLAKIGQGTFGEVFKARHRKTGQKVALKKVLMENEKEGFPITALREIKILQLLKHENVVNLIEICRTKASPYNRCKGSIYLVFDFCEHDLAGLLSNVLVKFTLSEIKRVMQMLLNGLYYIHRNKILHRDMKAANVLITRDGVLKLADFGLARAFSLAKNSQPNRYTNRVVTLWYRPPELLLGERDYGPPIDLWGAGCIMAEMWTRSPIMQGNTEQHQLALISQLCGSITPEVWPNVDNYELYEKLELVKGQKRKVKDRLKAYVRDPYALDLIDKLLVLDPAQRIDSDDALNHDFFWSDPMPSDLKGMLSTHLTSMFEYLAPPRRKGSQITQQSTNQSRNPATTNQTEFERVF
Chain of CDK9/Cyclin Tl (O60563 whole entry partner): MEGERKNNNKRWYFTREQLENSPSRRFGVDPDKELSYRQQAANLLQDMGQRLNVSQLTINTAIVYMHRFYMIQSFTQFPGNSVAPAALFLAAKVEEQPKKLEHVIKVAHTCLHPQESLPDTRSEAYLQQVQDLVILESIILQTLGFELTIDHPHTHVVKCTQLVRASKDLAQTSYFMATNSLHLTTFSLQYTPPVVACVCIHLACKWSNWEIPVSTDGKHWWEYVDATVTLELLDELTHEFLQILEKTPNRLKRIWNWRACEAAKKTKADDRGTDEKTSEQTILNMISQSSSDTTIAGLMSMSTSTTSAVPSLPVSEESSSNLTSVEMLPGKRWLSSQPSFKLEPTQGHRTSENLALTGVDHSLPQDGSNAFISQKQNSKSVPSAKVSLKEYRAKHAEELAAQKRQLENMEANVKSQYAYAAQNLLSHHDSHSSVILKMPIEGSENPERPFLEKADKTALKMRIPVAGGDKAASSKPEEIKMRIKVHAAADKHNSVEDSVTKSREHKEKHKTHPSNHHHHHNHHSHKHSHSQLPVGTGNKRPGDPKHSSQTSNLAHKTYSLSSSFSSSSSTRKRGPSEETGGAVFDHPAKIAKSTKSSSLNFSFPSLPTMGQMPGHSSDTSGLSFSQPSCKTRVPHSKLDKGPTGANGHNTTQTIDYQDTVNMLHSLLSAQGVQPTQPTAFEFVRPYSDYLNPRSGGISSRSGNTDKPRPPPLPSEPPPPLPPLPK

SMILES | IC50 [1] | IC50 [2] | IC50 [3] | IC50 [4] | IC50 ([5]; Homo sapiens, WiDr, 72 h) | IC50 ([6]; Homo sapiens, A2780, 72 h) | IC50 [7] | IC50 [8] | IC50 [9] | IC50 [10] | IC50 [11] | IC50 [12] | IC50 [5] | IC50 [6]
COC(=O)Nc1ccc2c(-c3nc(N[C@H]4CCCNC4)ncc3C(F)(F)F)c[nH]c2c1Cl [Example T-79] | > 500 nM | > 500 nM | > 500 nM | < 50 nM | 16.3 nM | 14.2 nM | 69.8 nM | 114 nM | 53.1 nM | 144 nM | 35.3 nM | – | – | –
COC(=O)Nc1ccc2c(-c3nc(N[C@H]4CCCNC4)ncc3C(F)(F)F)c[nH]c2c1C(F)(F)F [Example T-34] | > 500 nM | > 500 nM | > 500 nM | < 50 nM | – | 8.73 nM | 215 nM | – | 120 nM | 573 nM | – | – | – | –
CC1(C)CC[C@H](Nc2ncc(C(F)(F)F)c(-c3c[nH]c4c(S(=O)(=O)C5CCCC5)c(C#N)ccc34)n2)CN1 [Example 23] | – | – | – | – | – | – | – | – | – | – | – | < 10 nM | – | –
CC1(C)CC[C@H](Nc2ncc(C(F)(F)F)c(-c3c[nH]c4c(P(C)(C)=O)c(C#N)ccc34)n2)CN1 [Compound 101, reference compound] | – | – | – | – | 11.2 nM | 8.76 nM | 246 nM | 207 nM | 112 nM | 1660 nM | 88.8 nM | – | – | –
COC(=O)Nc1ccc2c(-c3nc(N[C@H]4CCCNC4)ncc3C(F)(F)F)c[nH]c2c1C1CC1 [Example T-17] | > 500 nM | > 500 nM | > 500 nM | < 50 nM | 26.8 nM | 4.76 nM | – | – | – | – | – | – | – | –
C=C(C)c1c(NC(=O)OC)ccc2c(-c3nc(N[C@H]4CCCNC4)ncc3C(F)(F)F)c[nH]c12 [Example T-70] | > 500 nM | > 500 nM | > 500 nM | < 50 nM | – | – | – | – | – | – | – | – | 45.5 nM | 4.47 nM
CC1(C)CC[C@H](Nc2nc(-c3c[nH]c4c(P(C)(C)=O)c(C#N)ccc34)c3ccccc3n2)CN1 [Example 24] | – | – | – | – | – | – | – | – | – | – | – | 10 to 500 nM | – | –
CC1(C)CC[C@H](Nc2ncc(C(F)(F)F)c(-c3c[nH]c4c(P(C)(C)=O)c(N5CCCCC5=O)ccc34)n2)CN1 [Example 02] | – | – | – | – | – | – | – | – | – | – | – | < 10 nM | – | –
COC(=O)Nc1ccc2c(-c3nc(N[C@H]4CCCNC4)ncc3C(F)(F)F)c[nH]c2c1Br [Example T-01] | > 500 nM | > 500 nM | > 500 nM | < 50 nM | 12.2 nM | 7.97 nM | 41.8 nM | 68.9 nM | 51.9 nM | 145 nM | 62.5 nM | – | – | –
COC(=O)Nc1ccc2c(-c3nc(N[C@H]4CCCNC4)ncc3C(F)(F)F)c[nH]c2c1C [Example T-52] | > 500 nM | > 500 nM | > 500 nM | < 50 nM | 28.3 nM | 16.1 nM | 51.1 nM | 107 nM | 17.7 nM | 119 nM | 89.2 nM | – | – | –
COC(=O)N[C@H]1CCC[C@@H](Nc2ncc(C(F)(F)F)c(-c3c[nH]c4c(P(C)(C)=O)c(C#N)ccc34)n2)C1 [Example 66] | – | – | – | – | – | – | – | – | – | – | – | < 10 nM | – | –
COC(=O)Nc1ccc2c(-c3nc(N[C@H]4CCCNC4)ncc3C(F)(F)F)c[nH]c2c1OC [Example T-37] | > 500 nM | 50 to 500 nM | > 500 nM | < 50 nM | 13.8 nM | 7.65 nM | 25.1 nM | 40.1 nM | 10.8 nM | 52.7 nM | 47.8 nM | – | – | –
COCCOC(=O)Nc1ccc2c(-c3nc(N[C@H]4CCCNC4)ncc3C(F)(F)F)c[nH]c2c1Br [Example T-62] | > 500 nM | > 500 nM | > 500 nM | < 50 nM | 6.35 nM | 12.5 nM | 38.8 nM | 57 nM | 23.8 nM | 75.5 nM | 55.4 nM | – | – | –
Cc1cc(Nc2ncc(C(F)(F)F)c(-c3c[nH]c4cc(C#N)ccc34)n2)n[nH]1 [Example 12] | – | – | – | – | – | – | – | – | – | – | – | 10 to 500 nM | – | –
COC(=O)Nc1ccc2c(-c3nc(N[C@H]4CCC(C)(C)NC4)ncc3C(F)(F)F)c[nH]c2c1Br [Example T-36] | > 500 nM | > 500 nM | > 500 nM | < 50 nM | – | – | 197 nM | 209 nM | 116 nM | 471 nM | – | – | – | –
Cc1cc(Nc2ncc(C(F)(F)F)c(-c3c[nH]c4c(P(C)(C)=O)c(C#N)ccc34)n2)n[nH]1 [Example 28] | – | – | – | – | – | – | – | – | – | – | – | < 10 nM | – | –
